We go through eleven compounds from patent US8742106B2 (Novartis AG, priority 2009, dated 2014).

The target in data set [1] is T1, human orexin 1 receptors (Homo sapiens (Human), UniProt O43613). The data set is described as follows: Calcium Accumulation in Cells (FLIPR), antagonism of orexin A. The settings on record: antagonism of orexin A, Cheng-Prusoff corrected; read-out: FLIPR hOx1R Ki. In kind it is cell-based.
In data set [2] the target is T2, human orexin 2 receptors (Homo sapiens (Human), UniProt O43614). The data set is described as above. In kind it is cell-based. The conditions noted are these: antagonism of orexin A, Cheng-Prusoff corrected; read-out: FLIPR hOx2R Ki. Summed up:
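Antagonism was measured as block of orexin A-evoked Ca²⁺ fluorescence (FLIPR), with orexin A added one hour after test compound (usually 10^−9–10^−5 M), which was first read alone for agonist activity. Human orexin 2 receptor cells were dye-loaded with 2 μM Fluo4-AM and 0.1 mM probenecid for 1 h.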

In data set [3] the target is T1, human orexin 1 receptors. The data set is described as follows: Radioligand Binding Assay I ([125I]orexin A competition, cell membranes). The conditions noted are these: read-out: binding I hOx1R Kd. Here is the method: (§1) Radioligand Binding Assay I
(§2) For crude cell membrane preparations, cells (CHO, Chinese hamster ovary or HEK, human embryonic kidney) expressing human orexin 1 or human orexin 2 receptors, were washed with HEPES (10 mM, pH 7.5), scraped off the culture plates with the same buffer, and centrifuged at 4° C. for 5 min at 2500×g. The cell pellet was either stored at −80° C. or used directly. Before the experiments, cell membranes were re-suspended in binding assay buffer (10 mM HEPES, 0.5% (w/v) bovine serum albumin, pH 7.5) by homogenisation with a Polytron homogeniser at 50 Hz for 20 s. Cell membranes were also used as made available by commercial providers.
(§3) In initial saturation experiments (to calculate Bmax), cell homogenates (150 μl) were incubated with 25-300 pM of the radioligand ([^125I]orexin A, 50 μl), 8 concentrations in triplicates in the presence or absence Orexin A (1 μM, 50 μl) to define non specific binding. Bound radioactivity was measured, and data were analysed with the program XLFIT or Graphpad Prism. Protein concentration was determined according to the Bradford/BioRad Protein Assay Kit.
(§4) In competition experiments, cell homogenates (150 μl) were incubated in assay buffer (10 mM HEPES, pH 7.5, 0.5% (w/v) bovine serum albumin, 5 mM MgCl2, 1 mM CaCl2, and tween 0.05%) for 1 h at room temperature with about 100 pM of the radioligand ([^125I]orexin A, 2100 Ci/mmole, 50 μl), and with various concentrations of compounds of the invention (50 μl) in triplicates; non-specific binding was determined in the presence of Orexin A (1 μM). Reactions were terminated by vacuum filtration, 3 washes of ice cold wash buffer (Tris-HCl pH 7.4/10 mM, with NaCl 154 mM).

Data set [4] concerns the target T2, human orexin 2 receptors. Described as above. The settings on record: read-out: binding I hOx2R Kd. The protocol: as §1, §2, §3, §4
Data set [5] has as its target T1, human orexin 1 receptors. The experiment in a line: Radioligand Binding Assay II ([3H]-SB649868 competition, cell membranes). The settings on record: read-out: binding II hOx1R Kd. The procedure, abridged:
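Membranes from CHO or HEK cells expressing human orexin 1 or orexin 2 receptors incubated 1 h at room temperature with about 1 nM [3H]-SB649868 and compound (triplicates) in HEPES pH 7.5 buffer with BSA, MgCl2, CaCl2, tween. Nonspecific binding defined with 10 μM almorexant; filtration read-out, Kd reported.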

Data set [6] deals with T2, human orexin 2 receptors. The data set is described as above. The settings on record: read-out: binding II hOx2R Kd. The procedure, abridged: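 Competition binding used membranes from CHO or HEK cells expressing human orexin 2 receptor, incubated 1 h at room temperature with ~1 nM [3H]-SB649868 in 10 mM HEPES pH 7.5, 0.5% BSA, 5 mM MgCl2, 1 mM CaCl2, 0.05% tween. Nonspecific binding was defined with 10 μM almorexant, and bound activity was measured after filtration.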

T2 sequence (O43614 whole entry): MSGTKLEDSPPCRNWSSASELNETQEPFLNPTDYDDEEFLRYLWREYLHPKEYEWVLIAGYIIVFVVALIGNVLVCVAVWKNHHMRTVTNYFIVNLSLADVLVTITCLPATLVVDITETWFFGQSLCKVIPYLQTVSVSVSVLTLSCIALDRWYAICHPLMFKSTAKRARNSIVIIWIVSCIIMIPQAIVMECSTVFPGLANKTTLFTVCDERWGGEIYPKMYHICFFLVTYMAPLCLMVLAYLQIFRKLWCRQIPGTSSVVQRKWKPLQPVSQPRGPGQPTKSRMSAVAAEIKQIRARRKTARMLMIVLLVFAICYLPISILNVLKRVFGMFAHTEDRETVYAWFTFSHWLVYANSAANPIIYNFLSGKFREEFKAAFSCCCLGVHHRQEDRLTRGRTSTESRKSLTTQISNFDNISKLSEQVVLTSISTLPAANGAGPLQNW
T1 sequence (O43613 whole entry): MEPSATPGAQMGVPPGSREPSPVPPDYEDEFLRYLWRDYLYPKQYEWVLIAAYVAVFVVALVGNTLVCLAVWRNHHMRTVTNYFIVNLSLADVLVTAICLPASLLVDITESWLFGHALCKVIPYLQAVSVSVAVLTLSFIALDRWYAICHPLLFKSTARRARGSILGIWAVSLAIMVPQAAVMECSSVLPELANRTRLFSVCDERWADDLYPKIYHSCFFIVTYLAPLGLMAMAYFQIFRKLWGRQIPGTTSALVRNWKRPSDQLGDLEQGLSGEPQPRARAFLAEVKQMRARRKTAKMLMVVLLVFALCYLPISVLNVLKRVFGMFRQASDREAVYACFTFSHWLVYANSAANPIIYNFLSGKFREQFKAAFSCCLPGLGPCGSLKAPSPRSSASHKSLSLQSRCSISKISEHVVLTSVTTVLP

Consider `Cn1nc(-c2ccccc2)c2c(C(F)(F)F)cc(OCC(=O)N[C@H]3CCc4ccccc43)nc21` [Example 1.3, (S)—N-(2,3-dihydro-1H-inden-1-yl)-2-(1-methyl-3-phenyl-4-(trifluoromethyl)-1H-pyrazolo[3,4-b]pyridin-6-yloxy)acetamide], for which the melting point fell in the range of 203 to 205.2 °C. The Ki on human orexin 1 receptors [1] worked out at 211 nM. Besides, the Ki on human orexin 2 receptors [2] worked out at 69 nM. Moreover, the Kd on human orexin 1 receptors [3] came out at 348 nM. For the same compound, the Kd on human orexin 2 receptors [4] amounted to 128 nM.

Compound `Cc1n[nH]c(C)c1[C@H](C)NC(=O)COc1cc(C(F)(F)F)c2c(-c3ccccc3)nn(C)c2n1` [Example 1.6, (S)—N-(1-(3,5-dimethyl-1H-pyrazol-4-yl)ethyl)-2-(1-methyl-3-phenyl-4-(trifluoromethyl)-1H-pyrazolo[3,4-b]pyridin-6-yloxy)acetamide] came in with a melting point of 145 to 147 °C.

`C[C@H](CNC(=O)COc1cc(C(F)(F)F)c2c(-c3ccccc3)nn(C)c2n1)c1ccccc1` [Example 1.5, (S)-2-(1-methyl-3-phenyl-4-(trifluoromethyl)-1H-pyrazolo[3,4-b]pyridin-6-yloxy)-N-(2-phenylpropyl)acetamide] had a melting point of 91 to 93 °C. In addition, the Ki on human orexin 1 receptors [1] worked out at 870 nM. The Ki at human orexin 2 receptors [2] came to 36 nM. For the same compound, on human orexin 1 receptors [3], the Kd came to 1150 nM. Moreover, the Kd at human orexin 2 receptors [4] was determined as 76 nM.

The compound `C[C@H](NC(=O)COc1ccc2c(-c3ccccc3)nn(C)c2n1)c1ccccc1` [Example 2.1, (S)-2-(1-methyl-3-phenyl-1H-pyrazolo[3,4-b]pyridin-6-yloxy)-N-(1-phenylethyl)acetamide] had a melting point of 55 to 56 °C. Moreover, the Ki at human orexin 1 receptors [1] is 492 nM. Besides, the Ki at human orexin 2 receptors [2] turned out to be 865 nM.

For `CCn1nccc1C(C)NC(=O)COc1cc(C(F)(F)F)c2c(-c3ccccc3)nn(C)c2n1` (stereo not drawn) [Example 1.39, N-(1-(1-ethyl-1H-pyrazol-5-yl)ethyl)-2-(1-methyl-3-phenyl-4-(trifluoromethyl)-1H-pyrazolo[3,4-b]pyridin-6-yloxy)acetamide], the Ki on human orexin 1 receptors [1] came out at 222 nM; at human orexin 2 receptors [2], 353 nM. For the same compound, the Kd at human orexin 1 receptors [3] was determined as 330 nM; on human orexin 2 receptors [4], 1130 nM.

As to `COc1ccc([C@H](C)NC(=O)COc2cc(C(F)(F)F)c3c(-c4ccccc4)nn(C)c3n2)cc1` [Example 1.4, (S)—N-(1-(4-methoxyphenyl)ethyl)-2-(1-methyl-3-phenyl-4-(trifluoromethyl)-1H-pyrazolo[3,4-b]pyridin-6-yloxy)acetamide], the melting point lay within 172 to 174 °C. The Kd on human orexin 1 receptors [5] came to 7 nM. On human orexin 1 receptors [1], the Ki came to 14 nM. For the same compound, the Ki on human orexin 2 receptors [2] worked out at 2 nM. In addition, the Kd at human orexin 2 receptors [6] stood at 3 nM. For the same compound, the Kd at human orexin 1 receptors [3] worked out at 8 nM. Besides, the Kd at human orexin 2 receptors [4] came to 4 nM.

As for `C[C@H](NC(=O)COc1cc(C(F)(F)F)c2c(-c3cccc(F)c3)nn(C)c2n1)c1ccccc1` [Example 1.22, (S)-2-(3-(3-fluorophenyl)-1-methyl-4-(trifluoromethyl)-1H-pyrazolo[3,4-b]pyridin-6-yloxy)-N-(1-phenylethyl)acetamide], the values for the inhibition constant (Ki) at human orexin 1 receptors [1] and at human orexin 2 receptors [2] were 107 nM and 50 nM, respectively. Besides, the dissociation constant (Kd) is 88 nM at human orexin 1 receptors [3] and 94 nM on human orexin 2 receptors [4].

As for `Cn1nc(-c2cccc(F)c2)c2c(C(F)(F)F)cc(OCC(=O)N[C@H]3CCc4ccccc43)nc21` [Example 1.61, (S)-N-(2,3-dihydro-1H-inden-1-yl)-2-(3-(3-fluorophenyl)-1-methyl-4-(trifluoromethyl)-1H-pyrazolo[3,4-b]pyridin-6-yloxy)acetamide], the Ki on human orexin 1 receptors [1] was determined as 117 nM; on human orexin 2 receptors [2], 33 nM. The Kd at human orexin 1 receptors [3] was determined as 204 nM; at human orexin 2 receptors [4] it was 89 nM.

On to `C[C@H](NC(=O)COc1cc(C(F)(F)F)c2c(-c3ccc(F)cc3)nn(C)c2n1)c1ccccc1` [Example 1.23, (S)-2-(3-(4-fluorophenyl)-1-methyl-4-(trifluoromethyl)-1H-pyrazolo[3,4-b]pyridin-6-yloxy)-N-(1-phenylethyl)acetamide], for which the Ki at human orexin 1 receptors [1] is 128 nM; at human orexin 2 receptors [2], 136 nM. Also, the Kd on human orexin 1 receptors [3] worked out at 131 nM; at human orexin 2 receptors [4], 278 nM.

With `Cc1ccc(C(C)NC(=O)COc2cc(C(F)(F)F)c3c(-c4ccccc4)nn(C)c3n2)cn1` (stereo not drawn) [Example 1.77, 2-(1-methyl-3-phenyl-4-(trifluoromethyl)-1H-pyrazolo[3,4-b]pyridin-6-yloxy)-N-(1-(6-methylpyridin-3-yl)ethyl)acetamide], the Ki on human orexin 1 receptors [1] amounted to 74 nM; on human orexin 2 receptors [2], 21 nM. For the same compound, the Kd was found to be 161 nM on human orexin 1 receptors [3] and 87 nM on human orexin 2 receptors [4].

For `Cc1cc(OCC(=O)N[C@@H](C)c2ccccc2)nc2c1c(-c1ccccc1)nn2C` [Example 1.13, (S)-2-(1,4-dimethyl-3-phenyl-1H-pyrazolo[3,4-b]pyridin-6-yloxy)-N-(1-phenylethyl)acetamide], the Ki at human orexin 1 receptors [1] was 181 nM; on human orexin 2 receptors [2] it was 233 nM. Also, the Kd amounted to 45 nM at human orexin 1 receptors [3] and 143 nM at human orexin 2 receptors [4].

What is called Ki is the equilibrium dissociation constant of an inhibitor or competing ligand from its target. As a reminder, the melting point is the temperature, or range, at which the solid turns liquid. As usually defined, the Kd is a measure of binding affinity in units of concentration.
